Laboratory results from BigSolDB 2.1.

Conditions: 298.15 K

CCC(C)n1ncn(-c2ccc(N3CCN(c4ccc(OC[C@H]5CO[C@](Cn6cncn6)(c6ccc(Cl)cc6Cl)O5)cc4)CC3)cc2)c1=O (mixture of isomers)
Conditions	solubility (mole fraction)
in DMAc	0.0118
in DMF	0.0107
in DMSO	0.00175
in NMP	0.022
in THF	0.00212
in acetone	0.000637
in acetonitrile	7.95e-05
in chloroform	0.0504
in dichloromethane	0.0327
in ethanol	1.91e-05
in isopropanol	2.14e-05
in methanol	3.79e-05
in n-butanol	2.3e-05
in n-propanol	2.05e-05
in transcutol	0.00073
in water	2.43e-07
